Consider one molecule from article PMC3920478, “Small molecule-mediated refolding and activation of myosin motor function” (eLife, 2014).

The target of experiment [1] is T1, β-cardiac myosin motor domain (Sus scrofa, UniProt P79293).
T1 construct: Melting curves of the β-cardiac myosin motor domain as determined by circular dichroism spectroscopy at 222 nm; from tissue; host or cells: porcine cardiac muscle
Kind of experiment: Melting temperature by circular dichroism at 222 nm. Details: species or system Porcine. The conditions noted are these: nucleotide-free, low salt, 100 µM (saturating) EMD 57033. The protocol:
Circular dichroism and differential static light scattering experiments were performed to determine Tm.
Protein solutions were diluted to a concentration of 0.3 mg/ml in a buffer containing 5 mM KPi pH 7.5, 15 mM KCl. Denaturation of β-cardiac myosin was measured by monitoring the temperature-dependent changes of ellipticity at 222 nm in a temperature controlled π*-180 Spectrometer equipped with a circular dichroism unit (Applied Photophysics, Leatherhead, UK). Measurements were performed in a 0.3-cm path length Quartz cuvette with a temperature gradient of 1°C min^−1. The transition midpoint of the unfolding reaction was calculated by fitting a Boltzmann function to the experimental data. Prior to measurements, the storage buffer of β-cardiac myosin that contains DTT and sucrose were exchanged using PD MiniTrap G-25 (GE Healthcare, Little Chalfont, UK) size exclusion columns equilibrated with CD Buffer (5 mM KPi pH 7.5, 15 mM KCl).

Experiment [2] concerns the target T2, Dd myosin-5 motor domain (Dictyostelium discoideum, UniProt P54697).
T2 sequence (P54697 1-821 limits assumed): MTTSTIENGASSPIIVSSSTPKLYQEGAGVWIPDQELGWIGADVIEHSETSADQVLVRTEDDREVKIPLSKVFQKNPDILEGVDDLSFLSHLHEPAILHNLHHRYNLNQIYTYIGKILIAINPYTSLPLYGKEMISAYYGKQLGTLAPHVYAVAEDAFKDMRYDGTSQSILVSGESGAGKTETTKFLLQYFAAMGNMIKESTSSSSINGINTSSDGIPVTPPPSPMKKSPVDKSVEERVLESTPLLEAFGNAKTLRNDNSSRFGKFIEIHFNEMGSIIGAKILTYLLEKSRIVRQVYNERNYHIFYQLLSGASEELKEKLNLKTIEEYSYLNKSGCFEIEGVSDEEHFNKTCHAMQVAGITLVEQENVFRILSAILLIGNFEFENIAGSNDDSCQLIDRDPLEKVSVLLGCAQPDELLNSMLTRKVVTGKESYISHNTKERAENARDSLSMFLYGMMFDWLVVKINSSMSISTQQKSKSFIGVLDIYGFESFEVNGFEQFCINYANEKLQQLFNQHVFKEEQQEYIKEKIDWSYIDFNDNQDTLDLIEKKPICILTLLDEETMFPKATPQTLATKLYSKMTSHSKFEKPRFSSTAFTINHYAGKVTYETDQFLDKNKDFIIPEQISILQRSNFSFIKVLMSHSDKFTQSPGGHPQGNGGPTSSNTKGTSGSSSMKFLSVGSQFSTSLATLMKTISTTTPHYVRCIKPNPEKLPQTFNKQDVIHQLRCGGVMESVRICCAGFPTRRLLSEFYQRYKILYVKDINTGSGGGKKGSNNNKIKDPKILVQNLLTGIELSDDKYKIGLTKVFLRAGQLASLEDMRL
Kind of experiment: Direct binding to motor domain construct. An excerpt: Proteolytic fragments were further purified by actin-coprecipitation.

T1 sequence (P79293 1-843 limits assumed): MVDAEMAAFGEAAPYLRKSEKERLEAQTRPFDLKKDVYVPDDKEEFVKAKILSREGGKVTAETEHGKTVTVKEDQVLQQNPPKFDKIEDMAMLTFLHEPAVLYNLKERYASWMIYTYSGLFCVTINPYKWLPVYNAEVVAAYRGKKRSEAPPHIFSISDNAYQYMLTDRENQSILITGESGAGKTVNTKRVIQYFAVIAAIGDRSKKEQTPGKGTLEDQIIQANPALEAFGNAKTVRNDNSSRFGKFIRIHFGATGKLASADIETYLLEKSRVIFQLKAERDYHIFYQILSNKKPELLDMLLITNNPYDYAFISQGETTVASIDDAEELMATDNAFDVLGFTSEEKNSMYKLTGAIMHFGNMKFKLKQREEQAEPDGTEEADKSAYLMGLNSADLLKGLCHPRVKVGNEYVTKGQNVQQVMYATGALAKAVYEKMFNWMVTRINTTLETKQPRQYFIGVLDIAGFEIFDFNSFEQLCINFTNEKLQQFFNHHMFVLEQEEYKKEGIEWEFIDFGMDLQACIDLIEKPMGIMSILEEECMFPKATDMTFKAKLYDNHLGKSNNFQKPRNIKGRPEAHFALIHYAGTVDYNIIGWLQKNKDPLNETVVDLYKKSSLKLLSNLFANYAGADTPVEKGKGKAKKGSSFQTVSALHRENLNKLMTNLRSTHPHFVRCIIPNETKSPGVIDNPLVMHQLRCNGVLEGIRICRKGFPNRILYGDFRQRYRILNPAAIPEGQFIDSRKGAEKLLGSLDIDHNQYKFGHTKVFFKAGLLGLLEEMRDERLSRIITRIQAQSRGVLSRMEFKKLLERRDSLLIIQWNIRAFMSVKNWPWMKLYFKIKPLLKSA

As to `COc1ccc(C(=O)N2CCCc3cc(C4=NNC(=O)SC4C)ccc32)cc1OC` (centres unmarked) [EMD 57033], the “Tm (melting temperature)” value in experiment [1] amounted to 53.6 ± 1.9 °C. Further, the “Direct binding to the motor domain” value in experiment [2] was “Direct binding of EMD 57033 to the motor domain was observed”.
